Read-outs that look alike come from different tables or passages of the source.
Key:
[1] = target: T1, β-kinase domain of the human insulin receptor (CKD) (Homo sapiens, UniProt P06213); assay: 32P-cytoplasmic kinase domain (CKD) autophosphorylation assay; type: biochemical; details: 32P incorporated into CKD band, 10 minutes at room temperature, 50 μM ATP; test concentration not given
T1 construct: The complete β-kinase domain of the human insulin receptor (CKD); made in house
Description: ^32P-cytoplasmic Kinase Domain (CKD) Autophosphorylation Assay
The complete β-kinase domain of the human insulin receptor (CKD) was expressed in, and purified from, baculovirus. CKD (4.0 μg/ml), in a solution of 29 mM HEPES (pH 7.6), 0.05% Triton X-100, 10 mM MgCl2, 2 mM MnCl2 (50 μl final volume), was combined with 50 μM ATP, and 5 μCi ^32P-ATP (3000 Ci/mmol.). A test compound, or the vehicle (DMSO), was added to a final DMSO concentration of 1%. The mixture was incubated for 10 minutes at room temperature. The reaction was terminated by the addition of 10 μl of 200 mM EDTA. A 30 μl volume was removed, mixed with 5 μl of 6× Laemmeli sodium dodecyl sulfate (SDS) treatment buffer, and heated to 95° C. for 5 minutes. A 20 μl aliquot was then run on an SDS-PAGE gel. The radioactivity incorporated into the CKD band is quantified by phosphorimaging of the gel, or scintillation counting of the excised bands.
The potency of a compound for increasing phosphorylation is expressed as a percentage of the vehicle level.

[2] = test system: 3T3 L1 fibroblasts differentiated to adipocytes; assay: Glucose transport activity (14C-2-deoxy-D-glucose uptake); type: cell-based; details: insulin 5.6 nM
Description: Glucose Transport Activity
3T3 L1 fibroblasts (ATCC) were grown in Dulbecco's modified Eagie's medium (DMEM) with 10% fetal bovine serum (FBS). The cells were plated at a density of 3×10^4 cells/well in 24-well plates. Two days after confluence was reached, the cells were treated for 3 days with […] isobutylmethylxanthine (IBMX), 1 μM dexamethasone, and 1.7 μM insulin. The cells were then transferred to DMEM with 10% fresh bovine serum with 1.7 μM insulin for 2 more days. The cells were maintained in DMEM with 10% FBS for an additional 4 days. Finally the cells were serum starved overnight in 0.1% bovine serum albumin (BSA) in DMEM prior to exposure to the test compounds.
The following day, the medium was replaced with 150 mM NaCl, 1.7 mM KCl, 0.9 mM CaCl2, K2HPO4 (pH 7.4) to which was added either the experimental compounds, or their vehicle (DMSO). Insulin or its vehicle (0.01% BSA) was diluted in the assay buffer (containing test compound or vehicle, respectively) to a final concentration of 5.6 nM. After incubation for 30 min at 37° C., 0.5 μCi/ml of ^14C-2-deoxy-D-glucose was added, and the incubation was continued for additional 30 min at 37° C. The cells were then washed 3 times with ice-cold PBS/20 mM glucose and lysed in 250 μl of lysis buffer (50 mM HEPES pH 7.6, 1% Triton X-100) for 30 min at room temperature. Radioactivity in the lysate was quantified by scintillation counting.
Once ^14C-2-deoxy-D-glucose is transported into the cell it is not released. Glucose transport is, therefore, proportional to the amount of radioactivity in the lysate. The concentration of compound necessary to produce an increase in glucose transport greater than the sum of the standard deviation of the vehicle control plus the largest standard deviation of a test sample (generally 150% of the vehicle control) was recorded as the EC (effective concentration) The results of the glucose transport activity assay are shown in Table 2,

T1 sequence (P06213 980-1382 limits assumed): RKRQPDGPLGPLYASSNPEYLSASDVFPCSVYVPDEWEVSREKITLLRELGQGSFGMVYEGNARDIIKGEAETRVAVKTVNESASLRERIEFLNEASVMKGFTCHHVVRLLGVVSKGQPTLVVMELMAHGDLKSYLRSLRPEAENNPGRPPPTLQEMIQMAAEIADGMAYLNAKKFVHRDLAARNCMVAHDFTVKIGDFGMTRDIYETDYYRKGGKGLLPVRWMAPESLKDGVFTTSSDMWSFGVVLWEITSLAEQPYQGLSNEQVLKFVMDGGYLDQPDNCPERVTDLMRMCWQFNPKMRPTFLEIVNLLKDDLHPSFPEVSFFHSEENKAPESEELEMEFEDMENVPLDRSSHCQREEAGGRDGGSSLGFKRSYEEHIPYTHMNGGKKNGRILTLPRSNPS

CKD phosphorylation (percentage of the vehicle level) [1] [%]	Structure (SMILES)	EC50 ([2]; concentration producing increase in glucose transport generally 150% of the vehicle control, read-out: Glucose Transport EC (effective concentration)) [µM]	EC50 ([2]; Mus musculus, 3T3-L1, concentration producing increase in glucose transport generally 150% of the vehicle control, read-out: Glucose Transport EC (effective concentration)) [µM]	EC50 ([2]; Mus musculus, 3T3-L1, no EC recorded, not tested above 3.2 μM, read-out: Glucose Transport EC (effective concentration), cells printed NT) [µM]
114.1	O=C(Nc1ccc(S(=O)(=O)O)c2ccccc12)c1cc(C(=O)Nc2ccc(S(=O)(=O)O)c3ccccc23)cc(C(=O)Nc2ccc(S(=O)(=O)O)c3ccccc23)c1 [Compound 7, 4-({3,5-bis[N-(4-sulfonaphthyl)carbamoyl]pheny}carbonylamino)naphthalene-sulfonic acid]	3.2	–	–
83.7	COC(=O)c1cc(NC(=O)c2cc(C(=O)Nc3cc(C(=O)OC)cc(C(=O)OC)c3)cc(C(=O)Nc3cc(C(=O)OC)cc(C(=O)OC)c3)c2)cc(C(=O)OC)c1 [Compound 16, methyl 3-[(3,5-bis{N-[3,5-bis(methoxycarbonyl)phenyl]carbamoyl}phenyl)-carbonylamino]-5-(methoxycarbonyl)benzoate]	–	1.6	–
148.2	O=C(Nc1ccc2cc(S(=O)(=O)O)ccc2c1)c1cc(C(=O)Nc2ccc3cc(S(=O)(=O)O)ccc3c2)cc(C(=O)Nc2ccc3cc(S(=O)(=O)O)ccc3c2)c1 [Compound 11, 6-({3,5-bis[N-(6-sulfo(2-naphthyl))carbamoyl]phenyl}carbonylamino)naphthalene-2-sulfonic acid]	–	–	> 3.2
